In brackets after ≈: the same amount, converted by molar mass.
Experiments:
[1] = target: Dihydroorotate dehydrogenase (quinone), mitochondrial (Homo sapiens, UniProt Q02127); experiment: Inhibition of human recombinant DHODH
[2] = Induction of bone marrow cell differentiation isolated from ER-HOXA9 fusion protein expressed mouse harboring GFP-lysozyme assessed as upregulation of CD11b/MAC1 after 4 days by flow cytometry; format: functional, cell-based; conditions: 96 h
U-937 = experiment: Induction of human U937 cell differentiation after 4 days by flow cytometry; format: functional, cell-based; conditions: U-937, 96 h
THP-1 = experiment: Induction of human THP1 cell differentiation after 4 days by flow cytometry; format: functional, cell-based; conditions: THP-1, 96 h
[3] = Solubility of the compound in PBS at pH 7.4; format: physicochemical
[4] = Protein binding in mouse plasma; format: ADME, cell-free; conditions: read-out: PPB
[5] = Protein binding in human plasma; format: ADME, cell-free; conditions: read-out: PPB
[6] = Stability of the compound in human plasma for 5 hrs; format: ADME, cell-free
[7] = Stability of the compound in PBS for 24 hrs; format: physicochemical; conditions: buffer

Chain of Dihydroorotate dehydrogenase (quinone), mitochondrial (Q02127 whole entry, the tested form may be a part): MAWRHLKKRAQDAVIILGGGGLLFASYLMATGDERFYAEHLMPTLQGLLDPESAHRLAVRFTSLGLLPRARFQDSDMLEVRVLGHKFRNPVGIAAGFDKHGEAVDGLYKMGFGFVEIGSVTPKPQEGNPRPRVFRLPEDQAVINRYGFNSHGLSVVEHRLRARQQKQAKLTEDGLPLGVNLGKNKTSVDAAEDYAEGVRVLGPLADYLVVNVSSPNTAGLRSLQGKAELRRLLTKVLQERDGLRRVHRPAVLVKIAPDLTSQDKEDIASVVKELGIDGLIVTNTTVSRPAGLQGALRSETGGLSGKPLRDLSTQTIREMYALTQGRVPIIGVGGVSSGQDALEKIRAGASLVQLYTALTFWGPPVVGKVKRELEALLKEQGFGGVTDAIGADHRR

Row | SMILES | IC50 [1] [µM] | EC50 [2] [µM] | EC50 (U-937) [µM] | EC50 (THP-1) [µM] | further results
1 | O=C(CNC(=O)c1ccc(Cl)cc1)N[C@@H]1CCCc2ccccc21 | > 20 |  |  |  | 
2 | O=C(CNC(=O)c1ccc(Cl)c(Cl)c1)N[C@@H]1CCCc2ccccc21 | > 20 |  |  |  | 
3 | O=C(CNC(=O)c1ccc(C(F)(F)F)cc1)N[C@@H]1CCCc2ccccc21 | > 20 |  |  |  | 
4 | O=C(CCNC(=O)c1ccccc1)N[C@@H]1CCCc2ccccc21 | 12.4 |  |  |  | 
5 | O=C(CCCNC(=O)c1ccc(C(F)(F)F)cc1)N[C@@H]1CCCc2ccccc21 | > 20 |  |  |  | 
6 | O=C(O)c1cccnc1Nc1cccc(C(F)(F)F)c1 [NIFLUMIC ACID] | 17 | > 20 | > 20 | > 20 | 
7 | O=C(CCNC(=O)c1ccc(F)cc1)N[C@@H]1CCCc2ccccc21 | 9.5 |  |  |  | 
8 | Cc1c(Cl)cccc1Nc1ncccc1C(=O)O [CLONIXIN] | 13 | > 20 | > 20 | > 20 | 
9 | O=C(CCCNC(=O)c1ccc(OC(F)(F)F)cc1)N[C@@H]1CCCc2ccccc21 | > 20 |  |  |  | 
10 | COc1ccc(Nc2ccccc2C(=O)O)cc1 | 10 | > 20 | > 20 | > 20 | 
11 | Cc1c(-c2ccc(-c3ccccc3F)cc2)nc2ccc(F)cc2c1C(=O)O [BREQUINAR] |  | 0.51 | 0.044 | 0.094 | 
12 | O=C(O)c1ccc(Cl)cc1Nc1ccccc1 | > 20 | > 20 | > 20 | > 20 | 
13 | O=C(CCCNC(=O)c1ccc(Cl)c(Cl)c1)N[C@@H]1CCCc2ccccc21 | > 20 |  |  |  | 
14 | O=C(O)c1cccnc1Nc1ccccc1 | 17.4 | > 20 | > 20 | > 20 | 
15 | O=C(CCCNC(=O)c1ccc(Cl)cc1)N[C@@H]1CCCc2ccccc21 | > 20 |  |  |  | 
16 | O=C(CNC(=O)c1ccc(OC(F)(F)F)cc1)N[C@@H]1CCCc2ccccc21 | > 20 |  |  |  | 

Further compounds by falling IC50 [1], results first:

Row | IC50 [1] [µM] | EC50 [2] [µM] | EC50 (U-937) [µM] | EC50 (THP-1) [µM] | SMILES | further results
17 | 8.9 |  |  |  | N#Cc1ccc(C(=O)NCCC(=O)N[C@@H]2CCCc3ccccc32)cc1 | 
18 | 8 | 16 | > 20 | > 20 | Cc1c(Nc2ncccc2C(=O)O)cccc1C(F)(F)F [FLUNIXIN] | 
19 | 7.4 | 7.9 | 8.8 | 6.5 | O=C(CCNC(=O)c1cccc(Cl)c1)N[C@@H]1CCCc2ccccc21 | 
20 | 3.6 | 5 | 12 | 5.1 | COc1ccc(C(=O)NCCC(=O)N[C@@H]2CCCc3ccccc32)cc1 | 
21 | 2.8 | > 20 | > 20 | > 20 | O=C(O)c1cccnc1Nc1ccc(F)cc1 | 
22 | 2.7 | 4.7 | 4.4 | 4.3 | O=C(CCNC(=O)c1ccc2c(c1)OC(F)(F)O2)N[C@@H]1CCCc2ccccc21 | 
23 | 1.9 | 8.1 | 4.2 | 2.7 | Cc1ccc(C(=O)NCCC(=O)N[C@@H]2CCCc3ccccc32)cc1 | 
24 | 1.5 | 3.2 | 2.4 | 2.5 | O=C(CCNC(=O)c1ccc(Cl)c(Cl)c1)N[C@@H]1CCCc2ccccc21 | 
25 | 1.3 | 4.5 | 5.6 | 3.2 | O=C(CCNC(=O)c1ccc(Cl)cc1)N[C@@H]1CCCc2ccccc21 | 
26 | 0.91 | 3.6 | 2.7 | 2.5 | O=C(CCNC(=O)c1ccc(C(F)(F)F)cc1)N[C@@H]1CCCc2ccccc21 | 
27 | 0.56 | 1.8 | 8.8 | 6.5 | O=C(CCNC(=O)c1ccc(OC(F)(F)F)cc1)N[C@@H]1CCCc2ccccc21 | solubility [3]: 2.5 µM (≈ 1.02 µg/mL); fraction unbound [4]: 0.01; fraction unbound [5]: 0.01; Stability [6]: Stable; Stability [7]: Stable
28 | 0.5 | 3.7 | 5.6 | 7.7 | O=C(O)c1cccnc1Nc1ccc(OC(F)(F)F)cc1 | 
29 | 0.42 | 10 | 17 | > 20 | O=C(O)c1ccccc1Nc1ccc(Cl)cc1 | 
30 | 0.4 | 3 | 6.1 | 10.7 | O=C(O)c1cccnc1Nc1ccc(Cl)cc1 | 

Reference: ChEMBL document CHEMBL3864183, “Development of ML390: A Human DHODH Inhibitor That Induces Differentiation in Acute Myeloid Leukemia” (ACS Med Chem Lett, 2016)
